Assay results from US8470534B2, “Methods of predicting resistance or sensitivity to therapies for cancer” (priority 2006, dated 2013).

System: MCF7, T47D, and Zr-75-1 cells
Assay: BrdU incorporation under hormone deprivation / antiestrogen (CDT, CDT/Tam, CDT/ICI)
Format: cell-based, human
Experimental: To understand the impact of RB deficiency on the response to hormone deprivation therapy, cells are cultured in CDT, CDT/Tam, or in the presence of pure antiestrogen, ICI182780 (CDT/ICI). Following treatment with these modalities, cells are labeled with BrdU to determine the influence of each agent on cell-cycle progression and the corresponding influence of RB knockdown on this response (FIG. 4B). These experiments are recapitulated in the polyclonal populations of T47D and Zr-75-1 donor and siRb88 cells (FIG. 4C). […] To elucidate the long-term growth effects of these therapies, cell proliferation assays are performed over 9 days. RB-proficient and -deficient MCF7 cells are seeded at equal densities and cultured in CDT/Tam (FIG. 4D). […] Similar results are evident in the same experiments with both T47D and Zr-75-1 RB-proficient and -deficient polyclonal pools (FIG. 4E).
RB target gene upregulation is a prognostic indicator in human breast cancers. RB performs a myriad of functions, the most well understood being repression of the E2F family of transcription factors. To determine the specific influence of the E2F axis on bypassing therapy, an activator E2F is overexpressed in wild-type MCF7 cells. Specifically, cells are infected either with an adenovirus encoding E2F3 (ad-E2F3) or a control virus (Ad-LacZ) and are harvested 3 days after infection for immunoblot analysis of levels of known RB-E2F targets (FIG. 5A). […] As expected, no changes are detected in RB levels, and CDK4 serves as a loading control. In order to assess the response to therapeutic intervention, 3 days after infection Ad-E2F3- or AdLacZ-infected MCF7 cells are separated into 2 major treatment groups: hormone therapy and DNA damage therapy. The estrogen ablation group is then cultured in the absence of estrogen and in the presence of Tam and ICI as described above. Alternatively, the cells in the DNA damage therapy group are treated with 16 μM CDDP for 18 hours prior to washing or treatment with 5 Gy IR. Cells from both therapy groups are BrdU labeled, and the replicative fraction of treated cells is determined with respect to untreated control cells (FIG. 5B).
To study the effect of estrogen depletion, cells are cultured for 72 hours in phenol red-free DMEM supplemented with 10% CDT serum with addition of 10^−9 M 4-HydroxyTam or 10^−6 M ICI where indicated. Cell growth assays are performed by trypsinizing cells and counting by trypan blue exclusion every 3 days.
Cells treated with IR are exposed to ^137Cs (dose rate: 0.67 Gy/min) at room temperature in tissue culture media. Culture with clinical grade CDDP for 18 hours is performed for all CDDP treatments. For all proliferation studies, cells are labeled with BrdU for 10 hours or 5 hours for LXSN/LXSN-p53dd infected cells, and BrdU immunofluorescence is performed as previously described. All BrdU results are expressed as a percentage of untreated control cells set to 100%, unless otherwise noted.

CC/C(=C(\c1ccccc1)c1ccc(OCCN(C)C)cc1)c1ccccc1 [Tam, tamoxifen]
cell-cycle arrest (replicative fraction, BrdU) (Ad-E2F3-infected versus control infected MCF7 cells, absence of estrogen plus agent): significantly reduced levels of cell-cycle arrest
cell-cycle inhibition by the agent (BrdU labeling) (RB-depleted cells (MCF7 siRb28, T47D and Zr-75-1 siRb88), CDT serum plus agent, 3 days): significantly reduced
cell-cycle progression (BrdU labeling) (cells harboring functional RB (MCF7, T47D, Zr-75-1 donor), CDT serum plus agent, 3 days, 10^−9 M 4-HydroxyTam or 10^−6 M ICI): elicit cell-cycle inhibition
